Test [1] deals with T1, 5-hydroxytryptamine receptor 2C (Rattus norvegicus, UniProt P08909).
T1 sequence (P08909 whole entry): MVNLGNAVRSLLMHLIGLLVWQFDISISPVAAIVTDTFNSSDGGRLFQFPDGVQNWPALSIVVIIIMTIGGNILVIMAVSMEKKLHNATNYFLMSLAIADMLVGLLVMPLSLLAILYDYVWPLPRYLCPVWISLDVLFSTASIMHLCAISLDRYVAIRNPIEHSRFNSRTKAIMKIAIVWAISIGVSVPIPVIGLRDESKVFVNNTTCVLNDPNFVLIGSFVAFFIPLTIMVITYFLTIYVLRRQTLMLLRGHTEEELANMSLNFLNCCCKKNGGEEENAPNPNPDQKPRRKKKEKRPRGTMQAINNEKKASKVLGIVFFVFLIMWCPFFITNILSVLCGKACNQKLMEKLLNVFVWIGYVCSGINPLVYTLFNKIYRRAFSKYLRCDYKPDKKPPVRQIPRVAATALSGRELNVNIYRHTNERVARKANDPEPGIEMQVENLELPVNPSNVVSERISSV

Test [2] addresses D(1A) dopamine receptor (Rattus norvegicus, UniProt P18901). The test is described as follows: Displacement of [3H]-SCH23390 from dopamine D1 receptor in rat strriatum homogenates after 20 mins by liquid scintillation counting.
Test [3] has as its target 5-hydroxytryptamine receptor 1A (Homo sapiens) (UniProt P08908). The experiment in a line: Agonist activity at serotonin 5-HT1A receptor (unknown origin) expressed in HEK293 cells assessed as induction of calcium flux at 10 uM after 60 mins by calcium 4-dye based FLIPR assay relative to control. The test is classed as functional, cell-based. (In general: A change in cytosolic calcium serves as a functional read-out for many receptors and channels.)

For test [4], the target named is T2, Adrenergic receptor alpha-1 (Rattus norvegicus, UniProt P15823+P23944+P43140).
T2 sequence (P15823 whole entry): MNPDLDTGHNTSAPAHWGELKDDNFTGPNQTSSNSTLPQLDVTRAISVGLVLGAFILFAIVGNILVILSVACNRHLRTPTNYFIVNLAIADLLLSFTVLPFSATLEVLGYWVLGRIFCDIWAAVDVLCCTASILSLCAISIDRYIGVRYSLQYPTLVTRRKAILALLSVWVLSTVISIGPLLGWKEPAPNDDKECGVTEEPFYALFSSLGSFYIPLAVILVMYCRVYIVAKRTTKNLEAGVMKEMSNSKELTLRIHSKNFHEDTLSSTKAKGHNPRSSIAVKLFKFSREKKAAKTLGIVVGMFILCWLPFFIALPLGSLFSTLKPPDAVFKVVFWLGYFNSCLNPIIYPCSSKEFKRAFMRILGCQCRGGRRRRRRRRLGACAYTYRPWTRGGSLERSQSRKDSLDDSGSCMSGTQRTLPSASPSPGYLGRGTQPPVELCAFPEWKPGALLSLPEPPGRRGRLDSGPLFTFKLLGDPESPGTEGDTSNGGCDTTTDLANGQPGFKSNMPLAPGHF
T2 sequence (P23944 whole entry): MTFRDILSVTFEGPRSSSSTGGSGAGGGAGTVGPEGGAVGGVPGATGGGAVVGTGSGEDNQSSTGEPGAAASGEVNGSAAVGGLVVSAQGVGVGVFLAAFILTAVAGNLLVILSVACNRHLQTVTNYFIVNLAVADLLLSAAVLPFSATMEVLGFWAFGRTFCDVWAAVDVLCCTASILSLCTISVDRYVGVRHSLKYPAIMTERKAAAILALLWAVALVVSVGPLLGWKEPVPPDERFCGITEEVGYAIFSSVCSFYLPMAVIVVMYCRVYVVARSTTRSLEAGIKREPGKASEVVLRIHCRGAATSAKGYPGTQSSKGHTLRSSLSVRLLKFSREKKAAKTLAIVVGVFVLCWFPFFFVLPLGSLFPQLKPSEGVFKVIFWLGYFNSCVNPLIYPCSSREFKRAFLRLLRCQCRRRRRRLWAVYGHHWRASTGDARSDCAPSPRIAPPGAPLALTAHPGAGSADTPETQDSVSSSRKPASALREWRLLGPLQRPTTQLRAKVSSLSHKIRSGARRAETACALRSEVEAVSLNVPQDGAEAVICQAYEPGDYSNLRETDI
T2 sequence (P43140 whole entry): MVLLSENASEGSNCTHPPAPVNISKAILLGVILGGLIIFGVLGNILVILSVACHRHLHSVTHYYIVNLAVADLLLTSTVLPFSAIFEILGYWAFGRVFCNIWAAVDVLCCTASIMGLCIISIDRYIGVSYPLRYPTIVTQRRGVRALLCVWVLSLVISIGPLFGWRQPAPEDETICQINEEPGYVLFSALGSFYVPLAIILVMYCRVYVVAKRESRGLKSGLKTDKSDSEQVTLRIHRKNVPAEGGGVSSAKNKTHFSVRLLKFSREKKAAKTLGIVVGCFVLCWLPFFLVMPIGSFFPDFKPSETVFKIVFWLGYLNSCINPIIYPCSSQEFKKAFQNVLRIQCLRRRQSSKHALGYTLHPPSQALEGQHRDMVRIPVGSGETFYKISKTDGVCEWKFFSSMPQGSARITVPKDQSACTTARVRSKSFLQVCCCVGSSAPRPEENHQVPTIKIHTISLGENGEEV
Description: Displacement of [3H]-prazosin from alpha-1 adrenergic receptor in rat cerebral cortex homogenates incubated for 60 mins by liquid scintillation counting

D(1A) dopamine receptor, sequence (P18901 whole entry): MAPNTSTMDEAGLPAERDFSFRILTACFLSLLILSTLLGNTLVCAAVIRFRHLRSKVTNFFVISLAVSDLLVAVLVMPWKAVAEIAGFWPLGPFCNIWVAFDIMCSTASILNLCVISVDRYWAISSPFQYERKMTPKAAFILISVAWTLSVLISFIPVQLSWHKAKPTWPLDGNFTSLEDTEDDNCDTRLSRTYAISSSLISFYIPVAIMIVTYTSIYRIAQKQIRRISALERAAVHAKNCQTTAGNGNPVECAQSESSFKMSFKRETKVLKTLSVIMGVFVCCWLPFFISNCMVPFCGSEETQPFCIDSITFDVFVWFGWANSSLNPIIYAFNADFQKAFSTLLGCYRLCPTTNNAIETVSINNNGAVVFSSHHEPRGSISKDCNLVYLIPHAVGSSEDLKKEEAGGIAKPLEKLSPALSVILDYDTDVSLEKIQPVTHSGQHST
5-hydroxytryptamine receptor 1A (Homo sapiens), sequence (P08908 whole entry): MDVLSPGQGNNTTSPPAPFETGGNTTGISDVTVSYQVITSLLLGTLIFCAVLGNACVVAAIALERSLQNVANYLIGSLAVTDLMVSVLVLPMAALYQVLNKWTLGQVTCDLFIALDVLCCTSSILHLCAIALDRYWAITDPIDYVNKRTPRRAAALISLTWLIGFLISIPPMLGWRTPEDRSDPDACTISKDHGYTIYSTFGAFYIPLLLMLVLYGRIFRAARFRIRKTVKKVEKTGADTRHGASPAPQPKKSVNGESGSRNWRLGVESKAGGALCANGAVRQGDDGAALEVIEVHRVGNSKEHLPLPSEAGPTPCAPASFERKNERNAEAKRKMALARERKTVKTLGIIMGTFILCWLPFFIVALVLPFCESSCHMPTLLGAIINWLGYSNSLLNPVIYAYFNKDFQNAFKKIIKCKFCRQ

For the molecule `O=C(CCCCN1CCC(c2noc3cc(F)ccc23)CC1)c1cc2c3c(c1)CCN3C(=O)CC2`, the inhibition constant Ki was 616 nM in test [1], 76.9 nM in test [2] and 431 nM in test [4]. In test [3], the Activity was 8.6%.

The Ki is a dissociation constant, usually derived from enzyme kinetics or from competition with a known ligand.

The record behind these values is ChEMBL document CHEMBL4270672, “Synthesis and Biological Evaluation of Fused Tricyclic Heterocycle Piperazine (Piperidine) Derivatives As Potential Multireceptor Atypical Antipsychotics” (J Med Chem, 2018).
